Laboratory results as given in patent US8952024B2, “Herbicidal pyrimidone derivatives” (E I du Pont de Nemours and Company, priority 2009, dated 2015).

How the values were obtained:
Test in all cases: Test C plant response
Format in all cases: in vivo
[1] = tested on: windgrass (Apera spica-venti); settings: Postemergence, scale 0 to 100
Summary of the method: (§1)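 Test chemicals were applied in a non-phytotoxic solvent mixture containing a surfactant. After 14 days in a controlled growth environment, injury was rated visually against untreated controls on a 0–100 scale (0 no effect, 100 complete control).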

[2] = tested on: winter wheat (Triticum aestivum); settings: Postemergence, scale 0 to 100
Summary of the method: as §1

[3] = tested on: spring barley (Hordeum vulgare); settings: Postemergence, scale 0 to 100
Summary of the method: as §1

[4] = tested on: deadnettle (henbit deadnettle, Lamium amplexicaule); settings: Postemergence, scale 0 to 100
Summary of the method: as §1

[5] = tested on: buckwheat (wild buckwheat, Polygonum convolvulus); settings: Postemergence, scale 0 to 100
Summary of the method: as §1

[6] = tested on: oilseed rape (Brassica napus); settings: Postemergence, scale 0 to 100
Summary of the method: as §1

[7] = tested on: spring wheat (Triticum aestivum); settings: Postemergence, scale 0 to 100
Summary of the method: as §1

[8] = tested on: bluegrass (annual bluegrass, Poa annua); settings: Postemergence, scale 0 to 100
Summary of the method: as §1

[9] = tested on: pigweed (Amaranthus retroflexus); settings: Postemergence, scale 0 to 100
Summary of the method: as §1

[10] = tested on: Italian ryegrass (Lolium multiflorum); settings: Postemergence, scale 0 to 100
Summary of the method: as §1

kochia (Kochia scoparia) = settings: Postemergence, scale 0 to 100
Summary of the method: as §1

[11] = tested on: blackgrass (Alopecurus myosuroides); settings: Postemergence, scale 0 to 100
Summary of the method: as §1

[12] = tested on: wild mustard (Sinapis arvensis); settings: Postemergence, scale 0 to 100
Summary of the method: as §1

[13] = tested on: winter barley (Hordeum vulgare); settings: Postemergence, scale 0 to 100
Summary of the method: as §1

[14] = tested on: Russian thistle (Salsola iberica); settings: Postemergence, scale 0 to 100
Summary of the method: as §1

wild oat (Avena fatua) = settings: Postemergence, scale 0 to 100
Summary of the method: as §1

[15] = tested on: galium (catchweed bedstraw, Galium aparine); settings: Postemergence, scale 0 to 100
Summary of the method: as §1

[16] = tested on: lambsquarters (Chenopodium album); settings: Postemergence, scale 0 to 100
Summary of the method: as §1

[17] = tested on: wild radish (Raphanus raphanistrum); settings: Postemergence, scale 0 to 100
Summary of the method: as §1

[18] = tested on: bromegrass (downy bromegrass, Bromus tectorum); settings: Postemergence, scale 0 to 100
Summary of the method: as §1

[19] = tested on: green foxtail (Setaria viridis); settings: Postemergence, scale 0 to 100
Summary of the method: as §1

[20] = tested on: pigweed (Amaranthus retroflexus); settings: Preemergence, scale 0 to 100

## Cc1ccccc1-n1c(-c2ccccc2)ncc(C(=O)C2=C(O)CCCC2=O)c1=O [Compound 12]
[1]; 31 g ai/ha
  Plant response rating: Windgrass: 20
[1]; 16 g ai/ha
  Plant response rating: Windgrass: 5
[1]; 125 g ai/ha
  Plant response rating: Windgrass: 50
[2]; 31 g ai/ha
  Plant response rating: Wheat, Winter: 0
[2]; 16 g ai/ha
  Plant response rating: Wheat, Winter: 0
[2]; 62 g ai/ha
  Plant response rating: Wheat, Winter: 0
[2]; 125 g ai/ha
  Plant response rating: Wheat, Winter: 10
[3]; 31 g ai/ha
  Plant response rating: Barley, Spring: 0
[3]; 16 g ai/ha
  Plant response rating: Barley, Spring: 0
[3]; 62 g ai/ha
  Plant response rating: Barley, Spring: 0
[3]; 125 g ai/ha
  Plant response rating: Barley, Spring: 0
[4]; 31 g ai/ha
  Plant response rating: Deadnettle: 100
[4]; 16 g ai/ha
  Plant response rating: Deadnettle: 100
[4]; 62 g ai/ha
  Plant response rating: Deadnettle: 100
[4]; 125 g ai/ha
  Plant response rating: Deadnettle: 100
[5]; 31 g ai/ha
  Plant response rating: Buckwheat, Wild: 15
[5]; 16 g ai/ha
  Plant response rating: Buckwheat, Wild: 10
[5]; 62 g ai/ha
  Plant response rating: Buckwheat, Wild: 50
[5]; 125 g ai/ha
  Plant response rating: Buckwheat, Wild: 50
[6]; 31 g ai/ha
  Plant response rating: Oilseed Rape: 70
[6]; 16 g ai/ha
  Plant response rating: Oilseed Rape: 50
[6]; 62 g ai/ha
  Plant response rating: Oilseed Rape: 80
[6]; 125 g ai/ha
  Plant response rating: Oilseed Rape: 95
[7]; 31 g ai/ha
  Plant response rating: Wheat, Spring: 0
[7]; 16 g ai/ha
  Plant response rating: Wheat, Spring: 0
[7]; 62 g ai/ha
  Plant response rating: Wheat, Spring: 0
[7]; 125 g ai/ha
  Plant response rating: Wheat, Spring: 0
[8]; 31 g ai/ha
  Plant response rating: Bluegrass: 20
[8]; 16 g ai/ha
  Plant response rating: Bluegrass: 10
[8]; 62 g ai/ha
  Plant response rating: Bluegrass: 30
[8]; 125 g ai/ha
  Plant response rating: Bluegrass: 40
[9]; 31 g ai/ha
  Plant response rating: Pigweed: 65
[9]; 16 g ai/ha
  Plant response rating: Pigweed: 65
[9]; 62 g ai/ha
  Plant response rating: Pigweed: 75
[9]; 125 g ai/ha
  Plant response rating: Pigweed: 75
[10]; 31 g ai/ha
  Plant response rating: Ryegrass, Italian: 0
[10]; 16 g ai/ha
  Plant response rating: Ryegrass, Italian: 0
[10]; 62 g ai/ha
  Plant response rating: Ryegrass, Italian: 0
[10]; 125 g ai/ha
  Plant response rating: Ryegrass, Italian: 0
Kochia (Kochia scoparia); 31 g ai/ha
  Plant response rating: Kochia: 10
Kochia (Kochia scoparia); 16 g ai/ha
  Plant response rating: Kochia: 0
Kochia (Kochia scoparia); 62 g ai/ha
  Plant response rating: Kochia: 35
Kochia (Kochia scoparia); 125 g ai/ha
  Plant response rating: Kochia: 75
[11]; 31 g ai/ha
  Plant response rating: Blackgrass: 20
[11]; 16 g ai/ha
  Plant response rating: Blackgrass: 0
[11]; 62 g ai/ha
  Plant response rating: Blackgrass: 30
[11]; 125 g ai/ha
  Plant response rating: Blackgrass: 40
[12]; 31 g ai/ha
  Plant response rating: Mustard, Wild: 95
[12]; 16 g ai/ha
  Plant response rating: Mustard, Wild: 80
[12]; 62 g ai/ha
  Plant response rating: Mustard, Wild: 95
[12]; 125 g ai/ha
  Plant response rating: Mustard, Wild: 95
[13]; 31 g ai/ha
  Plant response rating: Barley, Winter: 0
[13]; 16 g ai/ha
  Plant response rating: Barley, Winter: 0
[13]; 62 g ai/ha
  Plant response rating: Barley, Winter: 0
[13]; 125 g ai/ha
  Plant response rating: Barley, Winter: 0
[14]; 31 g ai/ha
  Plant response rating: Russian Thistle: 60
[14]; 16 g ai/ha
  Plant response rating: Russian Thistle: 60
[14]; 62 g ai/ha
  Plant response rating: Russian Thistle: 60
[14]; 125 g ai/ha
  Plant response rating: Russian Thistle: 70
Wild oat (Avena fatua); 31 g ai/ha
  Plant response rating: Oat, Wild: 15
Wild oat (Avena fatua); 16 g ai/ha
  Plant response rating: Oat, Wild: 0
Wild oat (Avena fatua); 62 g ai/ha
  Plant response rating: Oat, Wild: 15
Wild oat (Avena fatua); 125 g ai/ha
  Plant response rating: Oat, Wild: 15
[15]; 31 g ai/ha
  Plant response rating: Galium: 50
[15]; 16 g ai/ha
  Plant response rating: Galium: 5
[15]; 62 g ai/ha
  Plant response rating: Galium: 60
[15]; 125 g ai/ha
  Plant response rating: Galium: 80
[16]; 31 g ai/ha
  Plant response rating: Lambsquarters: 80
[16]; 16 g ai/ha
  Plant response rating: Lambsquarters: 70
[16]; 62 g ai/ha
  Plant response rating: Lambsquarters: 80
[16]; 125 g ai/ha
  Plant response rating: Lambsquarters: 95
[17]; 31 g ai/ha
  Plant response rating: Radish, Wild: 80
[17]; 16 g ai/ha
  Plant response rating: Radish, Wild: 60
[17]; 62 g ai/ha
  Plant response rating: Radish, Wild: 90
[17]; 125 g ai/ha
  Plant response rating: Radish, Wild: 90
[18]; 31 g ai/ha
  Plant response rating: Bromegrass, Downy: 10
[18]; 16 g ai/ha
  Plant response rating: Bromegrass, Downy: 0
[18]; 62 g ai/ha
  Plant response rating: Bromegrass, Downy: 15
[18]; 125 g ai/ha
  Plant response rating: Bromegrass, Downy: 20
[19]; 31 g ai/ha
  Plant response rating: Foxtail, Green: 60
[19]; 16 g ai/ha
  Plant response rating: Foxtail, Green: 50
[19]; 62 g ai/ha
  Plant response rating: Foxtail, Green: 80
[19]; 125 g ai/ha
  Plant response rating: Foxtail, Green: 90
[20]; 62 g ai/ha
  Plant response rating: Pigweed: 50
[20]; 125 g ai/ha
  Plant response rating: Pigweed: 65
[20]; 16 g ai/ha
  Plant response rating: Pigweed: 0
[20]; 31 g ai/ha
  Plant response rating: Pigweed: 0
